Values quoted from earlier work, collected in patent US9775831B2, “Combinations comprising biphenyl derivatives for use in the treatment of HCV” (BRISTOL-MYERS SQUIBB COMPANY, priority 2013, dated 2017).
Like-named read-outs stand apart in the source and are kept apart here.

System: genotype-1a variant with glutamine 30 changed to glutamate in the NS5A protein
Conditions: cited from earlier work
[1] = genotype-1a Q30E NS5A variant replicon, compound alone, read-out: EC50, titrated singly

SMILES	reciprocal synergistic inhibitory effect for the combination (BMS-790052 titrated with P-55 fixed at 200 nM, genotype-1a Q30E variant) [fold]	EC50 [1] [nM]	EC50 (genotype-1a Q30E variant, P-55 fixed at 200 nM, read-out: EC50 of BMS-790052 in the presence of a fixed amount of P-55) [nM]	synergistic inhibitory effect for the combination (P-55 titrated with BMS-790052 fixed at 200 nM, genotype-1a Q30E variant) [fold]	EC50 (genotype-1a Q30E variant, BMS-790052 fixed at 200 nM, read-out: EC50 of P-55 in the presence of a fixed amount of BMS-790052) [nM]
COC(=O)N[C@H](C(=O)N1CCC[C@H]1c1nc(-c2ccc(-c3ccc(-c4c[nH]c([C@@H]5CCCN5C(=O)[C@@H](NC(=O)OC)C(C)C)n4)cc3)cc2)c[nH]1)C(C)C [BMS-790052]	~100	~200	~2	–	–
CC(C)CC(=O)N[C@H](c1ncc(-c2ccc(-c3ccc(-c4cnc([C@@H](NC(=O)CC(C)C)C(C)C)[nH]4)cc3)cc2)[nH]1)C(C)C [Example P-55]	–	> 200	–	> 100	~2
